Nd/Pr separation factor, Extractant state and solubility in water data for 8 molecules are collected here from US8519184B2, “Synthesis of rare earth metal extractant” (Shin-Etsu Chemical Co., Ltd., priority 2010, dated 2013).

Series [1] is described as follows: Extraction/separation test (solvent extraction, Nd/Pr). The following applies: 20° C.
Procedure: An extraction/separation test was performed. […] The reaction product solution was diluted with hexane to form an organic solution having a DODGAA concentration of 0.3 mol/L, which might become an organic phase.
An extraction/separation test was performed. The concentration of DODGAA in the reaction product solution was computed from the amounts of reactants and synthesis medium. The reaction product solution was diluted with hexane to form an organic solution having a DODGAA concentration of 0.3 mol/L, which might become an organic phase. […]
An aqueous solution containing mixed rare earth metals was prepared by dissolving praseodymium chloride and neodymium chloride in water in a molar ratio Pr:Nd of 1:1 and a concentration (mol/L) of Pr+Nd as shown in Table 4 to form an aqueous solution which might become an aqueous phase. […] The concentrations of praseodymium and neodymium in the aqueous phase and the back-extracted aqueous hydrochloric acid solution were measured by an ICP atomic emission spectrometer ICP-7500 (Shimadzu Corp.).
Series [2] can be described thus: Extractant state of reaction product. In kind it is physicochemical. The note with it: Table 2; reaction product at varied B/A (dioctylamine/diglycolic anhydride). The protocol: An amount (designated A in Table 2) of diglycolic anhydride was suspended in 40 mL of hexane. Separately, an amount (designated B in Table 2) of dioctylamine was dissolved in 10 mL of hexane. With stirring, the dioctylamine solution was added dropwise to the diglycolic anhydride suspension. Stirring was continued at room temperature until it was confirmed that the solution became clear as a result of reaction of diglycolic anhydride. The reaction product was obtained in hexane solution. Table 2 also reports a ratio B/A that is a ratio of the amount (B mmol) of dioctylamine to the amount (A mmol) of diglycolic anhydride.
An aqueous solution containing mixed rare earth metals was prepared by dissolving praseodymium chloride and neodymium chloride in water in a molar ratio Pr:Nd of 1:1 and a concentration of 0.1 mol/L of Pr+Nd to form an aqueous solution, which might become an aqueous phase. A separatory funnel was charged with 100 mL of the organic solution and 100 mL of the aqueous solution and shaken at 20° C. for about 20 minutes to effect extraction. After equilibrium was reached, the liquid was allowed to separate into organic and aqueous phases. A separatory funnel was charged with 100 mL of the thus separated organic phase and 100 mL of 5N hydrochloric acid and shaken at 20° C. for about 20 minutes whereby the rare earth element once extracted into the organic phase was back-extracted into the aqueous hydrochloric acid solution. The concentrations of praseodymium and neodymium in the aqueous phase and the back-extracted aqueous hydrochloric acid solution were measured by an ICP atomic emission spectrometer ICP-7500 (Shimadzu Corp.).

For series [3] the following is noted: cited from earlier work.
Where [4] appears, read: Table 1, DODGAA 0.3 mol/L in hexane organic phase, Pr+Nd 0.1 mol/L aqueous, about 20 minutes.

Molecules are shown by their SMILES. Converted amounts (≈) assume the structure as drawn.

Consider `CCCCCCCCN(CCCCCCCC)C(=O)COCC(=O)O` [Comparative Example 1, N,N-dioctyl-3-oxapentane-1,5-amic acid], for which the Nd/Pr separation factor entry in series [1] (setting [4]) is “satisfactory”. Regarding `CCCCCCCCN(CCCCCCCC)C(=O)COCC(=O)O` [Comparative Example 2, N,N-dioctyl-3-oxapentane-1,5-amic acid], the Extractant state result in series [2] is “liquid”.

As for `CCCCCCCCN(CCCCCCCC)C(=O)COCC(=O)O` [DODGAA, N,N-dioctyl-3-oxapentane-1,5-amic acid], the solubility in water in series [3] is 6.2 µM (≈ 2.22 µg/mL). `CCCCCCCCN(CCCCCCCC)C(=O)COCC(=O)O` [Example 1, N,N-dioctyl-3-oxapentane-1,5-amic acid]: the Nd/Pr separation factor result in series [1] (setting [4]) is on record as “satisfactory”.

`CCCCCCCCN(CCCCCCCC)C(=O)COCC(=O)O` [Example 2, N,N-dioctyl-3-oxapentane-1,5-amic acid]: in series [2], the Extractant state result was “liquid”. As to `CCCCCCCCN(CCCCCCCC)C(=O)COCC(=O)O` [Example 3, N,N-dioctyl-3-oxapentane-1,5-amic acid], in series [1] (Table 2, varied B/A, DODGAA 0.3 mol/L in hexane, Pr+Nd 0.1 mol/L), the Nd/Pr separation factor entry is listed as “satisfactory”. The Extractant state entry in series [2] is reported as “liquid”. As to `CCCCCCCCN(CCCCCCCC)C(=O)COCC(=O)O` [Example 4, N,N-dioctyl-3-oxapentane-1,5-amic acid], in series [2], the Extractant state entry was “liquid”. As for `CCCCCCCCN(CCCCCCCC)C(=O)COCC(=O)O` [Example 5, N,N-dioctyl-3-oxapentane-1,5-amic acid], in series [2], the Extractant state entry is “solid”.
